Data as given in ChEMBL document CHEMBL1681651, “A broad spectrum anticancer nucleoside with selective toxicity against human colon cells in vitro” (2011).

How the values were obtained:
Type in all cases: functional
SF-268 [1] = experiment: Growth inhibition of human SF268 cells assessed as cell growth at 1 mM after 48 hrs by SRB assay; settings: SF-268, 48 h, read-out: Activity
A549 [2] = experiment: Growth inhibition of human A549 cells assessed as cell growth at 1 mM after 48 hrs by SRB assay; settings: A549, 48 h, read-out: Activity
SNB-19 [3] = experiment: Growth inhibition of human SNB19 cells assessed as cell growth at 1 mM after 48 hrs by SRB assay; settings: SNB-19, 48 h, read-out: Activity
U-251 = experiment: Growth inhibition of human U251 cells assessed as cell growth at 10 uM after 48 hrs by SRB assay; settings: U-251, 48 h, read-out: Activity
OVCAR-5 [4] = experiment: Growth inhibition of human OVCAR5 cells after 48 hrs by […] growth inhibition assay; settings: OVCAR-5, 48 h
[5] = Growth inhibition of human […] cells after 48 hrs by […] growth inhibition assay
MOLT-4 = experiment: Growth inhibition of human MOLT4 cells assessed as cell growth at 10 uM after 48 hrs by SRB assay; settings: MOLT-4, 48 h, read-out: Activity
OVCAR-5 [6] = experiment: Growth inhibition of human OVCAR5 cells assessed as cell growth at 10 uM after 48 hrs by SRB assay; settings: OVCAR-5, 48 h, read-out: Activity
HCT-116 = experiment: Growth inhibition of human HCT116 cells assessed as cell growth at 1 uM after 48 hrs by SRB assay; settings: HCT-116, 48 h, read-out: Activity
SNB-75 = experiment: Growth inhibition of human SNB75 cells assessed as cell growth at 1 mM after 48 hrs by SRB assay; settings: SNB-75, 48 h, read-out: Activity
T47D = experiment: Growth inhibition of human T47D cells assessed as cell growth at 0.1 uM after 48 hrs by SRB assay; settings: read-out: Activity
MCF7 = experiment: Growth inhibition of human MCF7 cells after 48 hrs by […] growth inhibition assay; settings: MCF7, 48 h
SF-268 [7] = experiment: Growth inhibition of human SF268 cells assessed as cell growth at 100 uM after 48 hrs by SRB assay; settings: SF-268, 48 h, read-out: Activity
HOP-62 = experiment: Growth inhibition of human HOP62 cells after 48 hrs by […] growth inhibition assay; settings: HOP-62, 48 h
SNB-19 [8] = experiment: Growth inhibition of human SNB19 cells assessed as cell growth at 100 uM after 48 hrs by SRB assay; settings: SNB-19, 48 h, read-out: Activity
OVCAR-8 [9] = experiment: Growth inhibition of human OVCAR8 cells assessed as cell growth at 0.1 uM after 48 hrs by SRB assay; settings: OVCAR-8, 48 h, read-out: Activity
A549 [10] = experiment: Growth inhibition of human A549 cells after 48 hrs by […] growth inhibition assay; settings: A549, 48 h
SK-MEL-2 = experiment: Growth inhibition of human SK-MEL-2 cells after 48 hrs by […] growth inhibition assay; settings: SK-MEL-2, 48 h
NCI-H23 = experiment: Growth inhibition of human NCI-H23 cells assessed as cell growth at 0.1 uM after 48 hrs by SRB assay; settings: NCI-H23, 48 h, read-out: Activity
NCI-H226 = experiment: Growth inhibition of human NCI-H226 cells assessed as cell growth at 10 uM after 48 hrs by SRB assay; settings: NCI-H226, 48 h, read-out: Activity
SK-OV-3 = experiment: Growth inhibition of human SKOV3 cells after 48 hrs by […] growth inhibition assay; settings: SK-OV-3, 48 h
COLO 205 = experiment: Growth inhibition of human COLO205 cells assessed as cell growth at 1 uM after 48 hrs by SRB assay; settings: COLO 205, 48 h, read-out: Activity
LOX IMVI = experiment: Growth inhibition of human LOXIMVI cells assessed as cell growth at 0.1 uM after 48 hrs by SRB assay; settings: read-out: Activity
BT-549 [11] = experiment: Growth inhibition of human BT549 cells assessed as cell growth at 100 uM after 48 hrs by SRB assay; settings: BT-549, 48 h, read-out: Activity
CCRF-CEM = experiment: Growth inhibition of human CCRF-CEM cells assessed as cell growth at 100 uM after 48 hrs by SRB assay; settings: read-out: Activity
EKVX = experiment: Growth inhibition of human EKVX cells assessed as cell growth at 10 uM after 48 hrs by SRB assay; settings: read-out: Activity
BT-549 [12] = experiment: Growth inhibition of human BT549 cells assessed as cell growth at 0.1 uM after 48 hrs by SRB assay; settings: BT-549, 48 h, read-out: Activity
UO-31 = experiment: Growth inhibition of human UO31 cells assessed as cell growth at 100 uM after 48 hrs by SRB assay; settings: UO-31, 48 h, read-out: Activity
OVCAR-8 [13] = experiment: Growth inhibition of human OVCAR8 cells assessed as cell growth at 100 uM after 48 hrs by SRB assay; settings: OVCAR-8, 48 h, read-out: Activity
HT-29 = experiment: Growth inhibition of human HT-29 cells assessed as cell growth at 0.1 uM after 48 hrs by SRB assay; settings: HT-29, 48 h, read-out: Activity
TK-10 = experiment: Growth inhibition of human TK10 cells assessed as cell growth at 0.1 uM after 48 hrs by SRB assay; settings: TK-10, 48 h, read-out: Activity
786-0 = experiment: Growth inhibition of human 786-0 cells assessed as cell growth at 1 mM after 48 hrs by SRB assay; settings: 786-0, 48 h, read-out: Activity
[14] = read-out: LC50 (the source's name)
[15] = read-out: pLC50 (the source's name) (converted)

CCOC(=O)C[C@H]1[C@@H](O[Si](C)(C)C(C)(C)C)[C@H](n2cnc3c(NC(=O)Nc4ccccc4)ncnc32)O[C@@H]1CNC(=O)NC
growth at 1000 µM (SF-268 [1]): -53% | growth at 1000 µM (A549 [2]): -58% | growth at 1000 µM (SNB-19 [3]): 12% | growth at 10 µM (U-251): 94% | GI50 (OVCAR-5 [4]; read-out: GI50): 31.1 µM | CC50 (OVCAR-5 [4]; [14]): > 100 µM | TGI (OVCAR-5 [4]; read-out: TGI): > 100 µM | GI50 (OVCAR-5 [4]; read-out: pGI50 (converted)): 30.9 µM | CC50 (OVCAR-5 [4]; [15]): > 100 µM | TGI (OVCAR-5 [4]; read-out: pTGI (converted)): > 100 µM | GI50 ([5]; read-out: GI50): 1.09 µM | CC50 [5, 14]: 59 µM | TGI ([5]; read-out: TGI): 4.57 µM | GI50 ([5]; read-out: pGI50 (converted)): 1.1 µM | CC50 [5, 15]: 58.9 µM | TGI ([5]; read-out: pTGI (converted)): 4.57 µM | growth at 10 µM (MOLT-4): 76% | growth at 10 µM (OVCAR-5 [6]): 95% | growth at 1 µM (HCT-116): 113% | growth at 1000 µM (SNB-75): 22% | growth at 0.1 µM (T47D): 91% | GI50 (MCF7; read-out: GI50): 3.42 µM | CC50 (MCF7; [14]): > 100 µM | TGI (MCF7; read-out: TGI): 45.1 µM | GI50 (MCF7; read-out: pGI50 (converted)): 3.39 µM | CC50 (MCF7; [15]): > 100 µM | TGI (MCF7; read-out: pTGI (converted)): 44.7 µM | growth at 100 µM (SF-268 [7]): 40% | GI50 (HOP-62; read-out: GI50): 8.96 µM | CC50 (HOP-62; [14]): 73.1 µM | TGI (HOP-62; read-out: TGI): 26.4 µM | GI50 (HOP-62; read-out: pGI50 (converted)): 8.91 µM | CC50 (HOP-62; [15]): 72.4 µM | TGI (HOP-62; read-out: pTGI (converted)): 26.3 µM | growth at 100 µM (SNB-19 [8]): 82% | growth at 0.1 µM (OVCAR-8 [9]): 99% | GI50 (A549 [10]; read-out: GI50): 4.18 µM | CC50 (A549 [10]; [14]): 79.1 µM | TGI (A549 [10]; read-out: TGI): 19.2 µM | GI50 (A549 [10]; read-out: pGI50 (converted)): 4.17 µM | CC50 (A549 [10]; [15]): 79.4 µM | TGI (A549 [10]; read-out: pTGI (converted)): 19.1 µM | GI50 (SK-MEL-2; read-out: GI50): 5.42 µM | CC50 (SK-MEL-2; [14]): > 100 µM | TGI (SK-MEL-2; read-out: TGI): 33.1 µM | GI50 (SK-MEL-2; read-out: pGI50 (converted)): 5.37 µM | CC50 (SK-MEL-2; [15]): > 100 µM | TGI (SK-MEL-2; read-out: pTGI (converted)): 33.1 µM | growth at 0.1 µM (NCI-H23): 101% | growth at 10 µM (NCI-H226): 102% | GI50 (SK-OV-3; read-out: GI50): 21 µM | CC50 (SK-OV-3; [14]): > 100 µM | TGI (SK-OV-3; read-out: TGI): > 100 µM | GI50 (SK-OV-3; read-out: pGI50 (converted)): 20.9 µM | CC50 (SK-OV-3; [15]): > 100 µM | TGI (SK-OV-3; read-out: pTGI): > 100 µM | growth at 1 µM (COLO 205): 97% | growth at 0.1 µM (LOX IMVI): 97% | growth at 100 µM (BT-549 [11]): 67% | growth at 100 µM (CCRF-CEM): 41% | growth at 10 µM (EKVX): 91% | growth at 0.1 µM (BT-549 [12]): 104% | growth at 100 µM (UO-31): 61% | growth at 100 µM (OVCAR-8 [13]): 29% | growth at 0.1 µM (HT-29): 104% | growth at 0.1 µM (TK-10): 98% | growth at 1000 µM (786-0): -97%
